For 23 molecules, IC50 results are on record in patent US20240199649A1 (Biosplice Therapeutics, Inc., priority 2022, published 2024).

The term IC50 denotes the concentration that inhibits the measured activity by half.

The target in the assay is recombinant DYRK1A kinase (Homo sapiens (Human), UniProt Q13627). The experiment in a line: DYRK1A kinase assay (Ser/Thr 18 peptide Z-lyte FRET assay). It counts as biochemical. The following applies: DYRK1A 0.25 μg/mL, ATP 15 μM, Ser/Thr peptide 18 4 μM; one hour at room temperature; 11-point dose-response, duplicate. Here is the method:
Representative compounds were screened using the assay procedure for DYRK1A kinase activity as described below.
Each compound was dissolved in DMSO as a 10 mM stock and used to prepare compound source plates.
This is a non-radioactive assay using fluorescence resonance energy transfer (FRET) between coumarin and fluorescein to detect kinase activity which is represented as a ratio of coumarin emission/fluorescein emission.
The mixture was allowed to incubate with the representative compounds for one hour at room temperature. All reactions were performed in duplicate. Unphosphorylated (“0% Control”) and phosphorylated (“100% control”) forms of Ser/Thr 18 served as control reactions. Additionally, an 11-point dose-response curve of Staurosporine (1 uM top) was run to serve as a positive compound control.
After incubation, Development Reagent A was diluted in Development Buffer then added to the reaction and allowed to further incubate for one hour at room temperature.
Dose-response curves were generated, and inhibitory concentration (IC50) values were calculated using non-linear regression curve fit in the Dotmatics' Studies Software (Bishops Stortford, UK).
`CNc1nc(N[C@@H]2CN(C)C[C@@H]2F)nn2ccc(-c3ccc4nc(C)n(CC(F)F)c4n3)c12` [Compound 198, 5-(3-(2,2-Difluoroethyl)-2-methyl-3H-imidazo[4,5-b]pyridin-5-yl)-N^2-((3R,4S)-4-fluoro-1-methylpyrrolidin-3-yl)-N^4-methylpyrrolo[2,1-f][1,2,4]triazine-2,4-diamine]: the IC50 was found to be 0.6 nM.

In the case of `CNc1nc(N[C@H]2CN(C3COC3)C[C@H]2F)nn2ccc(-c3ccc4nc(C)n(CC(F)F)c4n3)c12` [Compound 199, 5-(3-(2,2-Difluoroethyl)-2-methyl-3H-imidazo[4,5-b]pyridin-5-yl)-N^2-((3S,4R)-4-fluoro-1-(oxetan-3-yl)pyrrolidin-3-yl)-N^4-methylpyrrolo[2,1-f][1,2,4]triazine-2,4-diamine], the IC50 stood at 2.4 nM.

Consider `CNc1nc(N[C@@H]2CN(C3COC3)C[C@@H]2F)nn2ccc(-c3ccc4nc(C)n(CC(F)F)c4n3)c12` [Compound 200, 5-(3-(2,2-Difluoroethyl)-2-methyl-3H-imidazo[4,5-b]pyridin-5-yl)-N^2-((3R,4S)-4-fluoro-1-(oxetan-3-yl)pyrrolidin-3-yl)-N^4-methylpyrrolo[2,1-f][1,2,4]triazine-2,4-diamine], for which the IC50 came to 1.3 nM.

As for `CNc1nc(NC2CCN(CC(F)F)CC2)nn2ccc(-c3ccc4nc(C)n(CC(F)F)c4n3)c12` [Compound 201, 5-(3-(2,2-Difluoroethyl)-2-methyl-3H-imidazo[4,5-b]pyridin-5-yl)-N^2-(1-(2,2-difluoroethyl)piperidin-4-yl)-N^4-methylpyrrolo[2,1-f][1,2,4]triazine-2,4-diamine], the half-maximal inhibitory concentration (IC50) is 0.7 nM.

For `CNc1nc(NC2CCN(C(C)=O)CC2)nn2ccc(-c3ccc4nc(C)n(CC(F)F)c4n3)c12` [Compound 202, 1-(4-((5-(3-(2,2-Difluoroethyl)-2-methyl-3H-imidazo[4,5-b]pyridin-5-yl)-4-(methylamino)pyrrolo[2,1-f][1,2,4]triazin-2-yl)amino)piperidin-1-yl)ethan-1-one], the IC50 was found to be 1.8 nM.

With `CNc1nc(NC2CCN(C3COC3)CC2)nn2ccc(-c3ccc4nc(C)n(CC(F)F)c4n3)c12` [Compound 203, 5-(3-(2,2-Difluoroethyl)-2-methyl-3H-imidazo[4,5-b]pyridin-5-yl)-N^4-methyl-N^2-(1-(oxetan-3-yl)piperidin-4-yl)pyrrolo[2,1-f][1,2,4]triazine-2,4-diamine], the concentration for half-maximal inhibition (IC50) turned out to be 2 nM.

With `CNc1nc(N[C@H]2CCN(C)C[C@H]2F)nn2ccc(-c3ccc4nc(C)n(CC(F)F)c4n3)c12` [Compound 204, 5-(3-(2,2-Difluoroethyl)-2-methyl-3H-imidazo[4,5-b]pyridin-5-yl)-N^2-((3R,4S)-3-fluoro-1-methylpiperidin-4-yl)-N^4-methylpyrrolo[2,1-f][1,2,4]triazine-2,4-diamine], the IC50 was 0.8 nM.

Turning to `CNc1nc(N[C@@H]2CCN(C)C[C@@H]2F)nn2ccc(-c3ccc4nc(C)n(CC(F)F)c4n3)c12` [Compound 205, 5-(3-(2,2-Difluoroethyl)-2-methyl-3H-imidazo[4,5-b]pyridin-5-yl)-N^2-((3S,4R)-3-fluoro-1-methylpiperidin-4-yl)-N^4-methylpyrrolo[2,1-f][1,2,4]triazine-2,4-diamine], the IC50 was determined as 1 nM.

As for `CNc1nc(N[C@@H]2CCN(C)CC2(F)F)nn2ccc(-c3ccc4nc(C)n(CC(F)F)c4n3)c12` [Compound 214, (R)—N^2-(3,3-Difluoro-1-methylpiperidin-4-yl)-5-(3-(2,2-difluoroethyl)-2-methyl-3H-imidazo[4,5-b]pyridin-5-yl)-N^4-methylpyrrolo[2,1-f][1,2,4]triazine-2,4-diamine], the IC50 was 1.1 nM.

For the molecule `CNc1nc(N[C@H]2CCN(C)CC2(F)F)nn2ccc(-c3ccc4nc(C)n(CC(F)F)c4n3)c12` [Compound 215, (S)—N^2-(3,3-Difluoro-1-methylpiperidin-4-yl)-5-(3-(2,2-difluoroethyl)-2-methyl-3H-imidazo[4,5-b]pyridin-5-yl)-N^4-methylpyrrolo[2,1-f][1,2,4]triazine-2,4-diamine], the IC50 came to 4.4 nM.

Regarding `CNc1nc(N[C@@H]2CCN(C3COC3)CC2(F)F)nn2ccc(-c3ccc4nc(C)n(CC(F)F)c4n3)c12` [Compound 216, (R)—N^2-(3,3-Difluoro-1-(oxetan-3-yl)piperidin-4-yl)-5-(3-(2,2-difluoroethyl)-2-methyl-3H-imidazo[4,5-b]pyridin-5-yl)-N^4-methylpyrrolo[2,1-f][1,2,4]triazine-2,4-diamine], the IC50 worked out at 0.8 nM.

For `CNc1nc(N[C@H]2CCN(C3COC3)CC2(F)F)nn2ccc(-c3ccc4nc(C)n(CC(F)F)c4n3)c12` [Compound 217, (S)—N^2-(3,3-Difluoro-1-(oxetan-3-yl)piperidin-4-yl)-5-(3-(2,2-difluoroethyl)-2-methyl-3H-imidazo[4,5-b]pyridin-5-yl)-N^4-methylpyrrolo[2,1-f][1,2,4]triazine-2,4-diamine], the IC50 was 1.7 nM.

Consider `CNc1nc(NC2(C)CCOCC2)nn2ccc(-c3ccc4nc(C)n(CC(F)F)c4n3)c12` [Compound 218, 5-(3-(2,2-Difluoroethyl)-2-methyl-3H-imidazo[4,5-b]pyridin-5-yl)-N^4-methyl-N^2-(4-methyltetrahydro-2H-pyran-4-yl)pyrrolo[2,1-f][1,2,4]triazine-2,4-diamine], for which the IC50 was 14.2 nM.

Regarding `CNc1nc(N[C@@H]2[C@@H]3CNC[C@@H]32)nn2ccc(-c3ccc4nc(C)n(CC(F)F)c4n3)c12` [Compound 219, N^2-((1R,5S,6r)-3-Azabicyclo[3.1.0]hexan-6-yl)-5-(3-(2,2-difluoroethyl)-2-methyl-3H-imidazo[4,5-b]pyridin-5-yl)-N^4-methylpyrrolo[2,1-f][1,2,4]triazine-2,4-diamine], the half-inhibitory concentration (IC50) turned out to be 6.7 nM.

Regarding `CNc1nc(N[C@@H]2[C@@H]3CN(C(C)=O)C[C@@H]32)nn2ccc(-c3ccc4nc(C)n(CC(F)F)c4n3)c12` [Compound 220, 1-((1R,5S,6r)-6-((5-(3-(2,2-Difluoroethyl)-2-methyl-3H-imidazo[4,5-b]pyridin-5-yl)-4-(methylamino)pyrrolo[2,1-f][1,2,4]triazin-2-yl)amino)-3-azabicyclo[3.1.0]hexan-3-yl)ethan-1-one], the IC50 was 9.7 nM.

For the molecule `CNc1nc(N[C@H]2[C@@H]3COC[C@@H]32)nn2ccc(-c3ccc4nc(C)n(CC(F)F)c4n3)c12` [Compound 221, N^2-((1R,5S,6r)-3-Oxabicyclo[3.1.0]hexan-6-yl)-5-(3-(2,2-difluoroethyl)-2-methyl-3H-imidazo[4,5-b]pyridin-5-yl)-N^4-methylpyrrolo[2,1-f][1,2,4]triazine-2,4-diamine], the IC50 turned out to be 1.6 nM.

As to `CNc1nc(N[C@@H]2[C@@H]3COC[C@@H]32)nn2ccc(-c3ccc4nc(C)n(CC(F)F)c4n3)c12` [Compound 222, N^2-((1R,5S,6s)-3-Oxabicyclo[3.1.0]hexan-6-yl)-5-(3-(2,2-difluoroethyl)-2-methyl-3H-imidazo[4,5-b]pyridin-5-yl)-N^4-methylpyrrolo[2,1-f][1,2,4]triazine-2,4-diamine], the IC50 turned out to be 4.1 nM.

Take `CNc1nc(NC2CC3(CCN(C(C)=O)CC3)C2)nn2ccc(-c3ccc4nc(C)n(CC(F)F)c4n3)c12` [Compound 223, 1-(2-((5-(3-(2,2-Difluoroethyl)-2-methyl-3H-imidazo[4,5-b]pyridin-5-yl)-4-(methylamino)pyrrolo[2,1-f][1,2,4]triazin-2-yl)amino)-7-azaspiro[3.5]nonan-7-yl)ethan-1-one]: the IC50 came out at 1.1 nM.

`CNc1nc(NC2CCC3(CC2)CN(C(C)=O)C3)nn2ccc(-c3ccc4nc(C)n(CC(F)F)c4n3)c12` [Compound 224, 1-(7-((5-(3-(2,2-Difluoroethyl)-2-methyl-3H-imidazo[4,5-b]pyridin-5-yl)-4-(methylamino)pyrrolo[2,1-f][1,2,4]triazin-2-yl)amino)-2-azaspiro[3.5]nonan-2-yl)ethan-1-one]: the concentration for half-maximal inhibition (IC50) was found to be 0.2 nM.

For `CNc1nc(NC2CCC3(CC2)COC3)nn2ccc(-c3ccc4nc(C)n(CC(F)F)c4n3)c12` [Compound 225, 5-(3-(2,2-Difluoroethyl)-2-methyl-3H-imidazo[4,5-b]pyridin-5-yl)-N^4-methyl-N^2-(2-oxaspiro[3.5]nonan-7-yl)pyrrolo[2,1-f][1,2,4]triazine-2,4-diamine], the IC50 turned out to be 0.8 nM.

With `CNc1nc(N[C@H]2CC[C@@]3(CCO3)CC2)nn2ccc(-c3ccc4nc(C)n(CC(F)F)c4n3)c12` [Compound 226, 5-(3-(2,2-Difluoroethyl)-2-methyl-3H-imidazo[4,5-b]pyridin-5-yl)-N^4-methyl-N^2-((4r,7r)-1-oxaspiro[3.5]nonan-7-yl)pyrrolo[2,1-f][1,2,4]triazine-2,4-diamine], the IC50 was 2 nM.

As to `CNc1nc(N[C@H]2CC[C@]3(CCO3)CC2)nn2ccc(-c3ccc4nc(C)n(CC(F)F)c4n3)c12` [Compound 227, 5-(3-(2,2-Difluoroethyl)-2-methyl-3H-imidazo[4,5-b]pyridin-5-yl)-N^4-methyl-N^2-((4s,7s)-1-oxaspiro[3.5]nonan-7-yl)pyrrolo[2,1-f][1,2,4]triazine-2,4-diamine], the IC50 came out at 3.3 nM.

As for `CNc1nc(NC2C3CCC2CN(C)C3)nn2ccc(-c3ccc4nc(C)n(CC(F)F)c4n3)c12` (centres unmarked) [Compound 228, 5-(3-(2,2-Difluoroethyl)-2-methyl-3H-imidazo[4,5-b]pyridin-5-yl)-N^4-methyl-N^2-(3-methyl-3-azabicyclo[3.2.1]octan-8-yl)pyrrolo[2,1-f][1,2,4]triazine-2,4-diamine], the IC50 stood at 2.8 nM.
